According to ChEMBL document CHEMBL3400089, “Studies on antimicrobial effects of four ligands and their transition metal complexes with 8-mercaptoquinoline and pyridine terminal groups” (2015):
≈ marks a conversion by molar mass, not a printed value. Structures can show the parent of a compound that is named as a salt.

Columns and labels:
Format in all cases: functional
Sporosarcina ureae = test: Antimicrobial activity against Sarcina ureae after 24 hrs by two fold serial microdilution method
Pseudomonas aeruginosa = test: Antimicrobial activity against Pseudomonas aeruginosa after 24 hrs by two fold serial microdilution method
Escherichia coli = test: Antimicrobial activity against Escherichia coli ATCC 25922 after 24 hrs by two fold serial microdilution method; settings: ATCC 25922, 24 h
Staphylococcus aureus = test: Antimicrobial activity against Staphylococcus aureus ATCC 27154 after 24 hrs by two fold serial microdilution method; settings: ATCC 27154, 24 h
Aspergillus niger = test: Antimicrobial activity against Aspergillus niger after 48 hrs by two fold serial microdilution method
Saccharomyces cerevisiae = test: Antimicrobial activity against Saccharomyces cerevisiae after 48 hrs by two fold serial microdilution method
[1] = test system: Fusarium oxysporum f. sp. cubense; test: Antimicrobial activity against Fusarium oxysporum f. sp. cubense after 48 hrs by two fold serial microdilution method

## c1ccc(CSc2cccc3cccnc23)nc1
Sporosarcina ureae
  MIC: > 198 µM
Pseudomonas aeruginosa
  MIC: > 198 µM
Escherichia coli
  MIC: 49.5 µM (≈ 12.5 µg/mL)
Staphylococcus aureus
  MIC: > 198 µM

## NYSTATIN
Aspergillus niger
  MIC: 14.1 µM
Saccharomyces cerevisiae
  MIC: 14.1 µM
[1]
  MIC: 28.2 µM

## CC1(C)S[C@@H]2[C@H](NC(=O)[C@H](N)c3ccccc3)C(=O)N2[C@H]1C(=O)O [AMPICILLIN]
Sporosarcina ureae
  MIC: 17.4 µM (≈ 6.08 µg/mL)
Pseudomonas aeruginosa
  MIC: 17.4 µM (≈ 6.08 µg/mL)
Escherichia coli
  MIC: 34.7 µM (≈ 12.1 µg/mL)
Staphylococcus aureus
  MIC: 69.4 µM (≈ 24.2 µg/mL)

## CN[C@@H]1[C@H](O[C@H]2[C@H](O[C@H]3[C@H](O)[C@@H](O)[C@H](N=C(N)N)[C@@H](O)[C@@H]3N=C(N)N)O[C@@H](C)[C@]2(O)C=O)O[C@@H](CO)[C@H](O)[C@H]1O [STREPTOMYCIN SULFATE]
Sporosarcina ureae
  MIC: 2.14 µM
Pseudomonas aeruginosa
  MIC: 1.07 µM
Escherichia coli
  MIC: 2.14 µM
Staphylococcus aureus
  MIC: 1.07 µM

## c1cnc2c(SCc3ccncc3)cccc2c1
Sporosarcina ureae
  MIC: > 198 µM
Pseudomonas aeruginosa
  MIC: > 198 µM
Escherichia coli
  MIC: 24.8 µM (≈ 6.26 µg/mL)
Staphylococcus aureus
  MIC: > 198 µM

## c1cncc(CSc2cccc3cccnc23)c1
Sporosarcina ureae
  MIC: > 198 µM
Pseudomonas aeruginosa
  MIC: > 198 µM
Escherichia coli
  MIC: 99.1 µM (≈ 25 µg/mL)
Staphylococcus aureus
  MIC: > 198 µM
Aspergillus niger
  MIC: > 495 µM
Saccharomyces cerevisiae
  MIC: > 495 µM
[1]
  MIC: > 495 µM

## c1cc(CSc2cccc3cccnc23)nc(CSc2cccc3cccnc23)c1
Sporosarcina ureae
  MIC: > 117 µM
Pseudomonas aeruginosa
  MIC: > 117 µM
Escherichia coli
  MIC: 7.35 µM (≈ 3.13 µg/mL)
Staphylococcus aureus
  MIC: > 117 µM
